In brackets after ≈: the same amount, converted by molar mass. Read-outs that look alike come from different tables or passages of the source.
Key:
BVDV-1 (strain PE515) = test: Anti-BVDV assay, virus-induced cytopathic effect in MDBK cells (MTS); assay type: cell-based, Bovine Viral Diarrhea Virus; settings: Bovine viral diarrhea virus isolates and strains
Procedure: Madin-Darbey Bovine Kidney (MDBK) cells were maintained in Dulbecco's modified Eagle medium (DMEM) supplemented with BVDV-free 5% fetal calf serum (DMEME-FCS) at 37° C. in a humidified, 5% CO2 atmosphere. BVDV-1 (strain PE515) was used to assess the antiviral activity in MDBK cells. Vero cells were maintained in the same way as MDBK cells. Vero cells were infected with Coxsackie B3 virus (strain Nancy).
Ninety-six-well cell culture plates were seeded with MDBK cells in DMEM-FCS so that cells reached 24 hr later confluency. Then medium was removed and serial 5-fold dilutions of the test compounds were added in a total volume of 100 ul, after which the virus inoculum (100 ul) was added to each well. […] Uninfected cells and cells receiving virus without compound were included in each assay plate. After 5 days, medium was removed and 90 μl of DMEM-FCS and 10 ul of MTS/PMS solution (Promega) was added to each well. Following a 2 hr incubation period at 37° C. the optical density of the wells was read at 498 nm in a microplate reader.

[1] = Cytostatic effect on exponentially growing MDBK cells (MTS); assay type: cell-based, Bovine; settings: bovine; Table 9; reduction of growth of exponentially growing MDBK cells by 50%; mean of 2-5 determinations
Procedure: Madin-Darbey Bovine Kidney (MDBK) cells were maintained in Dulbecco's modified Eagle medium (DMEM) supplemented with BVDV-free 5% fetal calf serum ([…]) at 37° C. in a humidified, 5% CO2 atmosphere. […] Vero cells were maintained in the same way as MDBK cells. […] The effect of the drugs on exponentially growing MDBK cells was assessed as follows. Cells were seeded at a density of 5000 cell/well in 96 well plates in MEM medium (Gibco) supplemented with 10% fetal calf serum, 2 mM L-glutamine (Life Technologies) and bicarbonate (Life Technologies). […] Cultures were then again further incubated for 3 days after which the effect on cell growth was quantified by means of the MTS method (Promega).

[2] = Table 9, reduction of virus induced cytopathic effect in MDBK cells by 50%, BVDV strain PE515, mean of 2-5 determinations, read-out: EC50

SMILES | EC50 (BVDV-1 (strain PE515); [2]) | CC50 at 3 days [1] | EC50 (BVDV-1 (strain PE515); MDBK)
Brc1ccc(Cn2ccc3nc(-c4cccs4)nc-3c2)cc1 [GPJN-53, 5-[(4-Bromophenyl)methyl]-2-(2-thienyl)-5H-imidazo[4,5-c]pyridine] | 0.033 µg/mL (≈ 0.0891 µM) | 66 µg/mL (≈ 178 µM) | –
Fc1cccc(F)c1-c1nc2ccn(Cc3ccccc3)cc-2n1 [GPJN-1, 5-Benzyl-2-(2,6-difluorophenyl)-5H-imidazo[4,5-c]pyridine] | 0.24 µg/mL (≈ 0.747 µM) | > 83.3 µg/mL | –
Clc1ccccc1Cn1ccc2nc(-c3ccccc3)nc-2c1 [GPJN-7, 5-[(2-Chlorophenyl)methyl]-2-phenyl-5H-imidazo[4,5-c]pyridine] | 0.042 µg/mL (≈ 0.131 µM) | 22 µg/mL (≈ 68.8 µM) | –
Brc1ccc(Cn2ccc3nc(-c4cccc(Br)c4)nc-3c2)cc1 [GPJN-65, 2-(3-Bromophenyl)-5-[(4-bromophenyl)methyl]-5H-imidazo[4,5-c]pyridine] | – | > 100 µg/mL | 0.01 µg/mL (≈ 0.0226 µM)
Brc1ccc(Cn2ccc3nc(-c4ccccc4)nc-3c2)cc1 [GPJN-22, 5-[(4-Bromophenyl)methyl]-2-phenyl-5H-imidazo[4,5-c]pyridine] | 0.029 µg/mL (≈ 0.0796 µM) | 13 µg/mL (≈ 35.7 µM) | –
Clc1cccc(Cn2ccc3nc(-c4ccccc4)nc-3c2)c1 [GPJN-8, 5-[(3-Chlorophenyl)methyl]-2-phenyl-5H-imidazo[4,5-c]pyridine] | 0.086 µg/mL (≈ 0.269 µM) | 51 µg/mL (≈ 159 µM) | –
Cl.Clc1ccc(Cn2ccc3nc(-c4ccccc4)nc-3c2)cc1 [GPJN-9 xHCl, 5-[(4-Chlorophenyl)methyl]-2-phenyl-5H-imidazo[4,5-c]pyridine hydrochloride] | 0.016 µg/mL | – | –
Clc1ccc(Cn2ccc3nc(-c4cccc(Br)c4)nc-3c2)cc1 [GPJN-80, 2-(3-Bromophenyl)-5-[(4-chlorophenyl)methyl]-5H-imidazo[4,5-c]pyridine] | 0.18 µg/mL (≈ 0.451 µM) | > 100 µg/mL | –
Cc1cccc(Cn2ccc3nc(-c4ccccc4)nc-3c2)c1 [GPJN-21, 5-[(3-Methylphenyl)methyl]-2-phenyl-5H-imidazo[4,5-c]pyridine] | 0.022 µg/mL (≈ 0.0735 µM) | 22 µg/mL (≈ 73.5 µM) | –
c1ccc(CCCn2ccc3nc(-c4ccccc4)nc-3c2)cc1 [GPJN-14, 2-Phenyl-5-(3-phenylpropyl)-5H-imidazo[4,5-c]pyridine] | 0.07 µg/mL (≈ 0.223 µM) | 40 µg/mL (≈ 128 µM) | –
Clc1ccc(Cn2ccc3nc(-c4ccccc4)nc-3c2)s1 [GPJN-25, 5-[(5-Chloro-2-thienyl)methyl]-2-phenyl-5H-imidazo[4,5-c]pyridine] | 0.009 µg/mL (≈ 0.0276 µM) | 36 µg/mL (≈ 110 µM) | –
C(=Cc1ccccc1)Cn1ccc2nc(-c3ccccc3)nc-2c1 [GPJN-75, 2-Phenyl-5-(3-phenyl-2-propenyl)-5H-imidazo[4,5-c]pyridine] | 0.018 µg/mL (≈ 0.0578 µM) | 31.7 µg/mL (≈ 102 µM) | –
c1ccc(-c2nc3ccn(Cc4ccccn4)cc-3n2)cc1 [GPJN-34, 2-Phenyl-5-(2-pyridinylmethyl)-5H-imidazo[4,5-c]pyridine] | 0.865 µg/mL (≈ 3.02 µM) | > 100 µg/mL | –
Clc1ccccc1-c1nc2ccn(Cc3ccc(Br)cc3)cc-2n1 [GPJN-54, 5-[(4-Bromophenyl)methyl]-2-(2-chlorophenyl)-5H-imidazo[4,5-c]pyridine] | 0.1 µg/mL (≈ 0.251 µM) | 35 µg/mL (≈ 87.8 µM) | –
CCc1nc2ccn(Cc3ccc(Br)cc3)cc-2n1 [GPJN-48, 5-[(4-Bromophenyl)methyl]-2-ethyl-5H-imidazo[4,5-c]pyridine] | 0.351 µg/mL (≈ 1.11 µM) | > 100 µg/mL | –
Clc1ccc(Cn2ccc3nc(-c4ccccc4)nc-3c2)cc1 [GPJN-9, 5-[(4-Chlorophenyl)methyl]-2-phenyl-5H-imidazo[4,5-c]pyridine] | 0.049 µg/mL (≈ 0.153 µM) | – | –
FC(F)(F)c1ccc(Cn2ccc3nc(-c4ccccc4)nc-3c2)cc1 [GPJN-24, 2-Phenyl-5-[[4-(trifluoromethyl)phenyl]methyl]-5H-imidazo[4,5-c]pyridine] | 0.04 µg/mL (≈ 0.113 µM) | 21 µg/mL (≈ 59.4 µM) | –
c1ccc(Cn2ccc3nc(-c4ccccc4)nc-3c2)cc1 [GPJN-4, 5-Benzyl-2-phenyl-5H-imidazo[4,5-c]pyridine] | 0.04 µg/mL (≈ 0.14 µM) | 46 µg/mL (≈ 161 µM) | –

SMILES | EC50 (BVDV-1 (strain PE515); [2]) | CC50 at 3 days [1] | EC50 (BVDV-1 (strain PE515); MDBK)
CC(C)=CCn1ccc2nc(-c3ccccc3)nc-2c1 [GPJN-28, 5-(3-Methyl-2-butenyl)-2-phenyl-5H-imidazo[4,5-c]pyridine] | 0.325 µg/mL (≈ 1.23 µM) | > 75 µg/mL | –
Fc1ccc(Cn2ccc3nc(-c4c(F)cccc4F)nc-3c2)cc1 [GPJN-39, 2-(2,6-Difluorophenyl)-5-[(4-fluorophenyl)methyl]-5H-imidazo[4,5-c]pyridine] | 0.245 µg/mL (≈ 0.722 µM) | > 100 µg/mL | –
Fc1cccc(Cn2ccc3nc(-c4ccccc4)nc-3c2)c1 [GPJN-18, 5-[(3-Fluorophenyl)methyl]-2-phenyl-5H-imidazo[4,5-c]pyridine] | 0.019 µg/mL (≈ 0.0626 µM) | 55 µg/mL (≈ 181 µM) | –
Ic1ccc(Cn2ccc3nc(-c4ccccc4)nc-3c2)cc1 [GPJN-68, 5-[(4-Iodophenyl)methyl]-2-phenyl-5H-imidazo[4,5-c]pyridine] | 0.026 µg/mL (≈ 0.0632 µM) | 17 µg/mL (≈ 41.3 µM) | –
Cc1ccccc1Cn1ccc2nc(-c3ccccc3)nc-2c1 [GPJN-20, 5-[(2-Methylphenyl)methyl]-2-phenyl-5H-imidazo[4,5-c]pyridine] | 0.165 µg/mL (≈ 0.551 µM) | 28 µg/mL (≈ 93.5 µM) | –
Fc1cc(F)c(Cn2ccc3nc(-c4c(F)cccc4F)nc-3c2)c(F)c1 [GPJN-41, 2-(2,6-Difluorophenyl)-5-[(2,4,6-trifluorophenyl)methyl]-5H-imidazo[4,5-c]pyridine] | 0.58 µg/mL (≈ 1.55 µM) | > 100 µg/mL | –
N#Cc1ccc(Cn2ccc3nc(-c4ccccc4)nc-3c2)cc1 [GPJN-23, 4-[(2-Phenyl-5H-imidazo[4,5-c]pyridin-5-yl)methyl]-benzonitrile] | 0.014 µg/mL (≈ 0.0451 µM) | 46 µg/mL (≈ 148 µM) | –
c1ccc(OCCn2ccc3nc(-c4ccccc4)nc-3c2)cc1 [GPJN-73, 5-(2-Phenoxyethyl)-2-phenyl-5H-imidazo[4,5-c]pyridine] | 0.017 µg/mL (≈ 0.0539 µM) | > 100 µg/mL | –
Fc1ccc(Cn2ccc3nc(-c4ccccc4)nc-3c2)cc1 [GPJN-19, 5-[(4-Fluorophenyl)methyl]-2-phenyl-5H-imidazo[4,5-c]pyridine] | 0.013 µg/mL (≈ 0.0429 µM) | 40 µg/mL (≈ 132 µM) | –
COc1cccc(Cn2ccc3nc(-c4ccccc4)nc-3c2)c1 [GPJN-12, 5-[(3-Methoxyphenyl)methyl]-2-phenyl-5H-imidazo[4,5-c]pyridine] | 0.059 µg/mL (≈ 0.187 µM) | 56 µg/mL (≈ 178 µM) | –
Fc1cccc(F)c1Cn1ccc2nc(-c3ccccc3)nc-2c1 [GPJN-3, 5-[(2,6-Difluorophenyl)methyl]-2-phenyl-5H-imidazo[4,5-c]pyridine] | 0.06 µg/mL (≈ 0.187 µM) | 60 µg/mL (≈ 187 µM) | –
Cc1ccc(Cn2ccc3nc(-c4ccccc4)nc-3c2)cc1 [GPJN-15, 5-[(4-Methylphenyl)methyl]-2-phenyl-5H-imidazo[4,5-c]pyridine] | 0.009 µg/mL (≈ 0.0301 µM) | 29 µg/mL (≈ 96.9 µM) | –
c1ccc(-c2nc3ccn(Cc4ccncc4)cc-3n2)cc1 [GPJN-31, 2-Phenyl-5-(4-pyridinylmethyl)-5H-imidazo[4,5-c]pyridine] | 0.455 µg/mL (≈ 1.59 µM) | > 100 µg/mL | –
COc1ccc(Cn2ccc3nc(-c4ccccc4)nc-3c2)cc1 [GPJN-13, 5-[(4-Methoxyphenyl)methyl]-2-phenyl-5H-imidazo[4,5-c]pyridine] | 0.043 µg/mL (≈ 0.136 µM) | 45 µg/mL (≈ 143 µM) | –
c1ccc(-c2nc3ccn(Cc4ccc5ccccc5c4)cc-3n2)cc1 [GPJN-26, 5-(2-Naphthalenylmethyl)-2-phenyl-5H-imidazo[4,5-c]pyridine] | 0.041 µg/mL (≈ 0.122 µM) | > 100 µg/mL | –
Clc1cccc(-c2nc3ccn(Cc4ccc(Br)cc4)cc-3n2)c1 [GPJN-55, 5-[(4-Bromophenyl)methyl]-2-(3-chlorophenyl)-5H-imidazo[4,5-c]pyridine] | 0.06 µg/mL (≈ 0.15 µM) | > 100 µg/mL | –
Brc1ccc(Cn2ccc3nc(-c4ccncc4)nc-3c2)cc1 [GPJN-49, 5-[(4-Bromophenyl)methyl]-2-(4-pyridinyl)-5H-imidazo[4,5-c]pyridine] | 0.18 µg/mL (≈ 0.493 µM) | 62 µg/mL (≈ 170 µM) | –

Reference: US8779141B2, “Viral inhibitors” (Gilead Sciences, Inc., priority 2002, dated 2014)
